# PubChem BioAssay (NCI)
#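 Grown in 96-well plates, cells were treated for 48 hours with each compound at five concentrations. Insufficient inhibition: endpoint recorded as highest concentration tested. GI50 = concentration required for 50% inhibition of growth. TGI denotes the concentration required for complete inhibition of growth.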
# Columns and labels:
# Assay in all cases: NCI tumour cell line growth inhibition, 48 h
# 786-0 renal = system: 786-0 renal
# A498 renal = system: A498 renal
# A549 NSCLC = system: A549 NSCLC
# ACHN renal = system: ACHN renal
# CAKI-1 renal = system: CAKI-1 renal
# COLO 205 colon = system: COLO 205 colon
# DLD-1 colon = system: DLD-1 colon
# DMS 114 small cell lung = system: DMS 114 small cell lung
# DMS 273 small cell lung = system: DMS 273 small cell lung
# EKVX NSCLC = system: EKVX NSCLC
# HCC-2998 colon = system: HCC-2998 colon
# HCT-116 colon = system: HCT-116 colon
# HCT-15 colon = system: HCT-15 colon
# HL-60(TB) leukemia = system: HL-60(TB) leukemia
# HOP-62 NSCLC = system: HOP-62 NSCLC
# HOP-92 NSCLC = system: HOP-92 NSCLC
# HT29 colon = system: HT29 colon
# IGROV1 ovarian = system: IGROV1 ovarian
# KM12 colon = system: KM12 colon
# KM20L2 colon = system: KM20L2 colon
# LOX IMVI melanoma = system: LOX IMVI melanoma
# LXFL 529 NSCLC = system: LXFL 529 NSCLC
# M14 melanoma = system: M14 melanoma
# M19-MEL melanoma = system: M19-MEL melanoma
# MALME-3M melanoma = system: MALME-3M melanoma
# MOLT-4 leukemia = system: MOLT-4 leukemia
# NCI-H226 lung = system: NCI-H226 lung
# NCI-H23 lung = system: NCI-H23 lung
# NCI-H460 lung = system: NCI-H460 lung
# NCI-H522 lung = system: NCI-H522 lung
# OVCAR-3 ovarian = system: OVCAR-3 ovarian
# OVCAR-4 ovarian = system: OVCAR-4 ovarian
# OVCAR-5 ovarian = system: OVCAR-5 ovarian
# OVCAR-8 ovarian = system: OVCAR-8 ovarian
# RXF 393 renal = system: RXF 393 renal
# SF-268 CNS = system: SF-268 CNS
# SF-295 CNS = system: SF-295 CNS
# SF-539 CNS = system: SF-539 CNS
# SK-MEL-2 melanoma = system: SK-MEL-2 melanoma
# SK-MEL-28 melanoma = system: SK-MEL-28 melanoma
# SK-MEL-5 melanoma = system: SK-MEL-5 melanoma
# SK-OV-3 ovarian = system: SK-OV-3 ovarian
# SN12C renal = system: SN12C renal
# SNB-19 CNS = system: SNB-19 CNS
# SNB-75 CNS = system: SNB-75 CNS
# SNB-78 CNS = system: SNB-78 CNS
# SR leukemia = system: SR leukemia
# SW-620 colon = system: SW-620 colon
# TK-10 renal = system: TK-10 renal
# U251 CNS = system: U251 CNS
# UACC-257 melanoma = system: UACC-257 melanoma
# UACC-62 melanoma = system: UACC-62 melanoma
# UO-31 renal = system: UO-31 renal
# XF 498 CNS = system: XF 498 CNS
smiles,measurement,setting,value
CCC[CH2][Sn]([CH2]CCC)([O]C(=O)c1ccc(C)c(N)c1)[O]C(=O)c1ccc(C)c(N)c1,GI50,786-0 renal,0.323 µM
same,TGI,786-0 renal,1.31 µM
same,GI50,A498 renal,0.351 µM
same,TGI,A498 renal,1.21 µM
same,GI50,A549 NSCLC,2.82 µM
same,TGI,A549 NSCLC,8.33 µM
same,GI50,ACHN renal,0.352 µM
same,TGI,ACHN renal,1.32 µM
same,GI50,CAKI-1 renal,0.136 µM
same,TGI,CAKI-1 renal,1.38 µM
same,GI50,COLO 205 colon,0.33 µM
same,TGI,COLO 205 colon,1.38 µM
same,GI50,DLD-1 colon,0.282 µM
same,TGI,DLD-1 colon,1.25 µM
same,GI50,DMS 114 small cell lung,0.132 µM
same,TGI,DMS 114 small cell lung,0.322 µM
same,GI50,DMS 273 small cell lung,0.623 µM
same,TGI,DMS 273 small cell lung,1.97 µM
same,GI50,EKVX NSCLC,0.6 µM
same,TGI,EKVX NSCLC,1.94 µM
same,GI50,HCC-2998 colon,1.14 µM
same,TGI,HCC-2998 colon,2.36 µM
same,GI50,HCT-116 colon,0.527 µM
same,TGI,HCT-116 colon,1.86 µM
same,GI50,HCT-15 colon,0.698 µM
same,TGI,HCT-15 colon,2.01 µM
same,GI50,HL-60(TB) leukemia,0.144 µM
same,TGI,HL-60(TB) leukemia,0.863 µM
same,GI50,HOP-62 NSCLC,2.29 µM
same,TGI,HOP-62 NSCLC,3.78 µM
same,GI50,HOP-92 NSCLC,0.305 µM
same,TGI,HOP-92 NSCLC,1.7 µM
same,GI50,HT29 colon,1.34 µM
same,TGI,HT29 colon,2.64 µM
same,GI50,IGROV1 ovarian,1.16 µM
same,TGI,IGROV1 ovarian,2.42 µM
same,GI50,KM12 colon,1.31 µM
same,TGI,KM12 colon,2.61 µM
same,GI50,KM20L2 colon,1.5 µM
same,TGI,KM20L2 colon,2.82 µM
same,GI50,LOX IMVI melanoma,0.185 µM
same,TGI,LOX IMVI melanoma,0.681 µM
same,GI50,LXFL 529 NSCLC,0.0473 µM
same,TGI,LXFL 529 NSCLC,0.176 µM
same,GI50,M14 melanoma,0.647 µM
same,TGI,M14 melanoma,1.92 µM
same,GI50,M19-MEL melanoma,0.244 µM
same,TGI,M19-MEL melanoma,1.28 µM
same,GI50,MALME-3M melanoma,0.179 µM
same,TGI,MALME-3M melanoma,0.776 µM
same,GI50,MOLT-4 leukemia,0.108 µM
same,TGI,MOLT-4 leukemia,0.643 µM
same,GI50,NCI-H226 lung,0.334 µM
same,TGI,NCI-H226 lung,1.44 µM
same,GI50,NCI-H23 lung,0.203 µM
same,TGI,NCI-H23 lung,1 µM
same,GI50,NCI-H460 lung,1.43 µM
same,TGI,NCI-H460 lung,2.74 µM
same,GI50,NCI-H522 lung,0.018 µM
same,TGI,NCI-H522 lung,0.117 µM
same,GI50,OVCAR-3 ovarian,1.07 µM
same,TGI,OVCAR-3 ovarian,2.26 µM
same,GI50,OVCAR-4 ovarian,1.24 µM
same,TGI,OVCAR-4 ovarian,2.48 µM
same,GI50,OVCAR-5 ovarian,1.82 µM
same,TGI,OVCAR-5 ovarian,3.22 µM
same,GI50,OVCAR-8 ovarian,0.91 µM
same,TGI,OVCAR-8 ovarian,2.12 µM
same,GI50,RXF 393 renal,0.116 µM
same,TGI,RXF 393 renal,0.511 µM
same,GI50,SF-268 CNS,0.418 µM
same,TGI,SF-268 CNS,1.63 µM
same,GI50,SF-295 CNS,1.24 µM
same,TGI,SF-295 CNS,2.49 µM
same,GI50,SF-539 CNS,0.619 µM
same,TGI,SF-539 CNS,1.89 µM
same,GI50,SK-MEL-2 melanoma,0.172 µM
same,TGI,SK-MEL-2 melanoma,0.72 µM
same,GI50,SK-MEL-28 melanoma,0.347 µM
same,TGI,SK-MEL-28 melanoma,1.57 µM
same,GI50,SK-MEL-5 melanoma,1.08 µM
same,TGI,SK-MEL-5 melanoma,2.28 µM
same,GI50,SK-OV-3 ovarian,1.84 µM
same,TGI,SK-OV-3 ovarian,3.24 µM
same,GI50,SN12C renal,0.537 µM
same,TGI,SN12C renal,1.83 µM
same,GI50,SNB-19 CNS,1.2 µM
same,TGI,SNB-19 CNS,2.43 µM
same,GI50,SNB-75 CNS,0.502 µM
same,TGI,SNB-75 CNS,1.87 µM
same,GI50,SNB-78 CNS,0.277 µM
same,TGI,SNB-78 CNS,1.54 µM
same,GI50,SR leukemia,0.179 µM
same,TGI,SR leukemia,3.62 µM
same,GI50,SW-620 colon,0.224 µM
same,TGI,SW-620 colon,1.04 µM
same,GI50,TK-10 renal,0.515 µM
same,TGI,TK-10 renal,1.66 µM
same,GI50,U251 CNS,0.287 µM
same,TGI,U251 CNS,1.28 µM
same,GI50,UACC-257 melanoma,0.334 µM
same,TGI,UACC-257 melanoma,1.62 µM
same,GI50,UACC-62 melanoma,0.378 µM
same,TGI,UACC-62 melanoma,1.44 µM
same,GI50,UO-31 renal,1.11 µM
same,TGI,UO-31 renal,2.31 µM
same,GI50,XF 498 CNS,0.181 µM
same,TGI,XF 498 CNS,0.353 µM
